Results: patent US11207291B2, “Antimicrobial compositions comprising cannabinoids and methods of using the same” (Graphium Biosciences, Inc., priority 2017, dated 2021)
Converted amounts (≈) assume the structure as drawn. Like-named read-outs stand apart in the source and are kept apart here.

What was measured:
[1] = test system: Bifidobacterium longum; assay: Broth microdilution MIC, anaerobic bacteria (Example 1); type: cell-based; conditions: Bifidobacterium longum; Example 1; isolate MMX 3968; read-out: MIC
[2] = test system: Bifidobacterium bifidum; assay: Broth microdilution MIC, anaerobic bacteria (Example 4); type: cell-based; conditions: isolate MMX 3965
[3] = test system: C. difficile; assay: MIC/MBC testing (Example 5); type: cell-based; conditions: for MBC:MIC: ratios of 1-4 are indicative of bactericidal activity
[4] = test system: B. fragilis ATCC 25285; assay: MIC/MBC testing (Example 5); type: cell-based; conditions: Bacteroides fragilis, ATCC25285
[5] = test system: B. fragilis ATCC 25285; conditions: Example 5 control agents table; cited from earlier work
[6] = test system: Lactobacillus jensenii; assay: Broth microdilution MIC, anaerobic bacteria (Example 4); type: cell-based; conditions: isolate MMX 4149
[7] = test system: Bacteroides fragilis; assay: Broth microdilution MIC, anaerobic bacteria (Example 1); type: cell-based; conditions: Bacteroides fragilis, ATCC5285
[8] = test system: B. longum MMX 3968; assay: MIC/MBC testing (Example 5); type: cell-based
[9] = test system: Clostridium difficile; assay: Broth microdilution MIC, anaerobic bacteria (Example 4); type: cell-based; conditions: Clostridioides difficile
[10] = test system: Lactobacillus jensenii; assay: Broth microdilution MIC, anaerobic bacteria (Example 1); type: cell-based; conditions: Lactobacillus jensenii; Example 1; isolate MMX 4149; read-out: MIC
[11] = test system: Clostridium difficile; assay: as above; type: cell-based; conditions: Clostridioides difficile
[12] = test system: Bifidobacterium longum; assay: Broth microdilution MIC, anaerobic bacteria (Example 4); type: cell-based; conditions: isolate MMX 3968
[13] = test system: Bifidobacterium bifidum; assay: Broth microdilution MIC, anaerobic bacteria (Example 1); type: cell-based; conditions: Bifidobacterium bifidum; Example 1; isolate MMX 3965; read-out: MIC
[14] = test system: B. bifidum MMX 3965; assay: MIC/MBC testing (Example 5); type: cell-based
[15] = test system: Lactobacillus crispatus; assay: Broth microdilution MIC, anaerobic bacteria (Example 1); type: cell-based; conditions: Lactobacillus crispatus; Example 1; isolate MMX 4147; read-out: MIC
[16] = test system: Pseudomonas aeruginosa; assay: Broth microdilution MIC, aerobic bacteria (Example 4); type: cell-based
[17] = Compound precipitation in uninoculated solubility controls (Example 4); type: physicochemical; set-up: key to precipitation observed (type): NA: not applicable (no precipitation observed); TRP: trace precipitate; DCP: distinct precipitate
Protocol: Un-inoculated solubility control plates for each test media and drug were incubated in parallel with test plates and observed for evidence of drug precipitation. MICs were read where visible growth of the organism was inhibited.

[18] = test system: Acinetobacter baumannii; assay: Broth microdilution MIC, aerobic bacteria (Example 4); type: cell-based
[19] = test system: Bacteroides fragilis; assay: Broth microdilution MIC, anaerobic bacteria (Example 4); type: cell-based; conditions: ATCC25285, isolate MMX 123 (ATCC 25285)
[20] = test system: S. aureus MMX 757; assay: MIC/MBC testing (Example 5); type: cell-based
[21] = test system: E. coli ATCC 25922; assay: MIC/MBC testing (Example 5); type: cell-based; conditions: Escherichia coli, ATCC25922
[22] = test system: S. pyogenes MMX 404; assay: MIC/MBC testing (Example 5); type: cell-based
[23] = test system: S. pneumoniae ATCC 49619; assay: MIC/MBC testing (Example 5); type: cell-based; conditions: Streptococcus pneumoniae, ATCC49619
[24] = test system: strains tested; assay: MIC/MBC testing, summary (Example 5); type: cell-based
[25] = test system: S. aureus ATCC 29213; assay: MIC/MBC testing (Example 5); type: cell-based
[26] = test system: Escherichia coli; assay: Broth microdilution MIC, aerobic bacteria (Example 4); type: cell-based; conditions: ATCC25922
[27] = test system: E. faecalis MMX 848; assay: MIC/MBC testing (Example 5); type: cell-based
[28] = test system: Enterococcus faecalis (VSE); assay: Broth microdilution MIC, aerobic bacteria (Example 4); type: cell-based; conditions: ATCC29212
[29] = test system: Streptococcus pyogenes; assay: as above; type: cell-based
[30] = test system: Staphylococcus aureus (MRSA); assay: microbe, parasite or virus in culture; type: cell-based
[31] = test system: evaluated yeast and fungal isolates; assay: Broth microdilution MIC, summary (Example 4); type: cell-based
[32] = test system: Enterococcus faecalis (VRE); assay: microbe, parasite or virus in culture; type: cell-based
[33] = test system: Aspergillus fumigatus; assay: Broth microdilution MIC, fungi (Example 4); type: cell-based; conditions: Aspergillus fumigatus, Example 4, isolate MMX 5280 (MYA-3626)
[34] = test system: Klebsiella pneumoniae (KPC-2); assay: microbe, parasite or virus in culture; type: cell-based
[35] = test system: Candida parapsilosis; assay: Broth microdilution MIC, fungi (Example 4); type: cell-based; conditions: for concentration at which 50% inhibition observed relative to the growth control: value in parenthesis; for MIC: Lodderomyces parapsilosis
[36] = test system: Streptococcus pneumoniae; assay: Broth microdilution MIC, aerobic bacteria (Example 4); type: cell-based; conditions: ATCC49619
[37] = test system: gram-negative aerobes; assay: Broth microdilution MIC, summary (Example 4); type: cell-based; conditions: tested alone
[38] = test system: E. faecalis ATCC 29212; assay: MIC/MBC testing (Example 5); type: cell-based
[39] = test system: Staphylococcus aureus (MSSA); assay: Broth microdilution MIC, aerobic bacteria (Example 4); type: cell-based; conditions: ATCC 29213 / MSSA
[40] = Clostridioides difficile, ATCC700057, Example 5, ATCC 700057
[41] = ATCC700057, Example 4, isolate MMX 4381 (ATCC 700057)
[42] = Clostridioides difficile, Example 5, MMX 8330
[43] = Clostridioides difficile, Example 5, MMX 8333
[44] = ratios of 1-4 are indicative of bactericidal activity
[45] = Bifidobacterium longum, MMX3968
[46] = Staphylococcus aureus, ATCC29213
[47] = Bifidobacterium bifidum, MMX3965
[48] = Enterococcus faecalis, ATCC29212

Cc1ncc([N+](=O)[O-])n1CCO [Metronidazole]
MIC [1]: 8 µg/mL (≈ 46.7 µM) | MIC [2]: 2 µg/mL (≈ 11.7 µM) | MIC [3, 40]: 0.12 µg/mL (≈ 0.701 µM) | MIC ([3]; Clostridioides difficile, Example 5, MMX 8330, read-out: MIC): 0.5 µg/mL (≈ 2.92 µM) | MIC ([3]; Example 5, MMX 8333): 0.5 µg/mL (≈ 2.92 µM) | MIC ([4]; Example 5, read-out: MIC): 0.5 µg/mL (≈ 2.92 µM) | CLSI QC range (MIC) [5]: (0.25-2)^1 μg/mL | MIC [6]: > 32 µg/mL | MIC [7]: 0.5 µg/mL (≈ 2.92 µM) | MIC ([8]; Bifidobacterium longum, MMX3968, Example 5, read-out: MIC): 8 µg/mL (≈ 46.7 µM) | MIC [9, 41]: 0.25 µg/mL (≈ 1.46 µM) | MIC ([9]; Example 4, isolate MMX 8330): 0.25 µg/mL (≈ 1.46 µM) | MIC ([9]; Example 4, isolate MMX 8333): 2 µg/mL (≈ 11.7 µM) | MIC [10]: > 32 µg/mL | MIC ([11]; ATCC00057, Example 1, isolate MMX 4381 (ATCC 00057)): 0.12 µg/mL (≈ 0.701 µM) | MIC ([11]; Example 1, isolate MMX 8330, read-out: MIC): 0.12 µg/mL (≈ 0.701 µM) | MIC [12]: 8 µg/mL (≈ 46.7 µM) | MIC [13]: 1 µg/mL (≈ 5.84 µM) | MIC ([14]; Bifidobacterium bifidum, MMX3965, Example 5, read-out: MIC): 1 µg/mL (≈ 5.84 µM) | MIC [15]: > 32 µg/mL

CCCCCc1cc(O)c2c(c1)OC(C)(C)[C@@H]1CCC(C)=C[C@@H]21 [THC, tetrahydrocannabinol]
MIC [16]: > 128 µg/mL | MIC [2]: 16 µg/mL (≈ 50.9 µM) | concentration at which precipitation was observed ([17]; Brucella Broth): 128 µg/mL | precipitation observed (type) ([17]; Brucella Broth): DCP | precipitation observed (type) ([17]; MHB II): DCP | precipitation observed (type) ([17]; MHB II with Blood): none | precipitation observed (type) ([17]; RPMI): TRP | MBC:MIC ([3]; ATCC 700057): 2 | MBC [3, 40]: 128 µg/mL (≈ 407 µM) | MIC [3, 40]: 64 µg/mL (≈ 204 µM) | MBC [3, 42]: 64 µg/mL (≈ 204 µM) | MIC [3, 42]: 64 µg/mL (≈ 204 µM) | MBC [3, 43]: 128 µg/mL (≈ 407 µM) | MIC [3, 43]: 64 µg/mL (≈ 204 µM) | MBC:MIC ([3]; MMX 8330): 1 | MBC:MIC ([3]; MMX 8333): 2 | MIC [4]: > 256 µg/mL | MIC [18]: > 128 µg/mL | MIC [19]: > 128 µg/mL | MIC [6]: 128 µg/mL (≈ 407 µM) | MBC ([20]; Staphylococcus aureus, MMX757): 32 µg/mL (≈ 102 µM) | MIC ([20]; Staphylococcus aureus, MMX757): 4 µg/mL (≈ 12.7 µM) | MBC:MIC [20, 44]: 8 | MIC [21]: > 256 µg/mL | MBC [8, 45]: > 256 µg/mL | MIC [8, 45]: 32 µg/mL (≈ 102 µM) | MBC:MIC [8, 44]: >8 | MIC [9, 41]: 32 µg/mL (≈ 102 µM) | MIC ([9]; Example 4, isolate MMX 8330): 32 µg/mL (≈ 102 µM) | MIC ([9]; Example 4, isolate MMX 8333): 32 µg/mL (≈ 102 µM) | MBC ([22]; Streptococcus pyogenes, MMX404): 32 µg/mL (≈ 102 µM) | MIC ([22]; Streptococcus pyogenes, MMX404): 32 µg/mL (≈ 102 µM) | MBC:MIC [22, 44]: 1 | MIC [23]: 1 µg/mL (≈ 3.18 µM) | biocidal activity against the strains tested [24]: overall biocidal | MIC [12]: 32 µg/mL (≈ 102 µM) | MBC [25, 46]: 4 µg/mL (≈ 12.7 µM) | MIC [25, 46]: 4 µg/mL (≈ 12.7 µM) | MBC:MIC [25, 44]: 1 | MIC [26]: > 128 µg/mL | MBC ([27]; Enterococcus faecalis, MMX848): 4 µg/mL (≈ 12.7 µM) | MIC ([27]; Enterococcus faecalis, MMX848): 2 µg/mL (≈ 6.36 µM) | MBC:MIC [27, 44]: 2 | MIC [28]: 2 µg/mL (≈ 6.36 µM) | MIC [29]: 16 µg/mL (≈ 50.9 µM) | MIC [30]: 2 µg/mL (≈ 6.36 µM) | activity against yeast and fungal isolates [31]: Neither THC nor CBD were active | MBC [14, 47]: 128 µg/mL (≈ 407 µM) | MIC [14, 47]: 32 µg/mL (≈ 102 µM) | MBC:MIC [14, 44]: 4 | MIC [32]: 2 µg/mL (≈ 6.36 µM) | MIC ([33]; 24 hr, read-out: MIC at 24 hr): > 128 µg/mL | MIC ([33]; 48 hr, read-out: MIC at 48 hr): > 128 µg/mL | MIC [34]: > 128 µg/mL | concentration at which 50% inhibition observed relative to the growth control ([35]; Example 4, 24 hr): 4 µg/mL | concentration at which 50% inhibition observed relative to the growth control ([35]; Example 4, 48 hr): 4 µg/mL | MIC ([35]; ATCC22019, 24 h, read-out: MIC at 24 hr): > 128 µg/mL | MIC ([35]; ATCC22019, Example 4, 48 hr, isolate MMX 2323 (ATCC 22019), read-out: MIC at 48 hr): > 128 µg/mL | MIC [36]: 1 µg/mL (≈ 3.18 µM) | activity against Gram-negative aerobes [37]: inactive | MBC [38, 48]: 8 µg/mL (≈ 25.4 µM) | MIC [38, 48]: 2 µg/mL (≈ 6.36 µM) | MBC:MIC [38, 44]: 4 | MIC [39]: 2 µg/mL (≈ 6.36 µM)
